SMILES strings stand for the structures.

Consider 30 compounds from patent US5380729A, “12-hetero substituted 6,11-ethano-6,11-dihydrobenzo (b) quinolizinium salts and compositions and method of use thereof” (Sterling Winthrop Inc., priority 1993, dated 1995).

For the first test, the system named is PCP recognition sites. Briefly: [3H]TCP Radioreceptor Assay (internal screen). Format: binding, rat (male Sprague-Dawley. The following applies: @ 10 μM; rat whole brain membranes; room temperature, 25 min. As to the method:
[^3 H]TCP Radioreceptor Assay (internal screen)
[^3 H]TCP binding to PCP recognition sites was performed as described by Vignon et al. Brain Research 1983, 280, 194°197. Male Sprague-Dawley rats were sacrificed by decapitation, and whole brains were homogenized in 10 volumes (wt/vol) of cold Tris-HCl buffer (50 mM, pH 7.7) using a Brinkmann Polytron (setting 6, 30 sec). The homogenate was centrifuged at 40,000×g for 10 min at 4° C. The supernatant was decanted, and the homogenization and centrifugation steps were repeated twice as described above. Following this, the pellet was resuspended in Tris-HCl (5 mM, pH 7.7) at a tissue concentration of 0.5°0.75 g/ml, and one ml aliquots were frozen at -70° C. until use. The binding characteristics for PCP recognition sites were not altered by the freezing of membrane suspensions.
On the day of the assay, membrane aliquots were thawed, resuspended in fresh 5 mM Tris-HCl buffer at a tissue concentration of 1 mg/ml, and stored on ice until use. Each assay tube contained 100 μl of [^3 H]TCP at a final concentration of approximately 1 nM, 100 μl of various concentrations of the compounds of interest, 500 μl of the tissue suspension and 300 of buffer to a final assay volume of 1 ml and a final protein concentration of 0.5 mg/tube. Non-specific binding was defined by addition of a final concentration of 100 μM PCP to blank tubes. All tubes were incubated at room temperature for 25 min before termination of the reaction by rapid filtration over Whatman GF/B glass fiber filters that had been presoaked in a solution of 0.5% polyethylenimine for at least 1 hr prior to use. Filters were washed with three 4 ml volumes of cold Tris buffer. Following addition of scintillation cocktail, the amount of bound radioactivity was determined by liquid scintillation spectrometry using a Beckman LS 5000TA liquid scintillation counter with an efficiency for tritium of approximately 55% . Inhibition constants (Ki values) were calculated using the EBDA/LIGAND program (McPherson, J. Pharmacol. Meth. 1985, 14, 213-228), purchased from Elsevier/Biosoft, Inc. Results are reported as Ki values or as a percent (%) inhibition of binding at 10
Take `CC1(C)C2c3ccccc3C(c3cccc[n+]32)C12O[C@H](COCc1ccccc1)[C@@H](COCc1ccccc1)O2` (stereo partly drawn) [Example 9, 12,12-(1R,2R-dibenzyloxymethyl-ethanediolketal)-13,13-dimethyl-6,11-ethano-6,11-dihydrobenzo[b]quinolizinium perchlorate]: the “Percent inhibition, [3H]TCP (internal screen)” value (“Percent inhibition, [3H]TCP” for short) is 11%. For `CC(=O)Oc1ccc(C(C)(C)C)c2c1C1[n+]3ccccc3C2C2(O[C@H](C)C[C@@H](C)O2)C1(C)C` (stereo partly drawn) [Example 57, 6,11-ethano-12,12-(2R,4R-pentanediolketal)-13,13-dimethyl-7-acetoxy-10-t-butyl-6,11-dihydrobenzo[b]quinolizinium perchlorate], the “Percent inhibition, [3H]TCP” value amounted to 18%. In the case of `CCOC1(OCC)C2c3c(C(C)(C)C)ccc(OC(C)=O)c3C([n+]3ccccc32)C1(C)C.[O-][Cl+3]([O-])([O-])[O-]` (stereo not drawn) [Example 58, 6,11-ethano-12,12-diethoxy-13,13-dimethyl-7-acetoxy-10-t-butyl-6,11-dihydrobenzo[b]quinolizinium perchlorate], the “Percent inhibition, [3H]TCP” value was found to be 12%. On the same count and under the same terms, the value for `CCOC1(OCC)C2c3c(OC)ccc(OC)c3C([n+]3ccccc32)C1(C)C.[O-][Cl+3]([O-])([O-])[O-]` (stereo not drawn) [Example 52, 6,11-ethano-12,12-diethoxy-13,13-dimethyl-7,10-dimethoxy-6,11-dihydrobenzo[b]quinolizinium perchlorate] was 33%.

Still in this test, the particulars now being: rat whole brain membranes; ~1 nM [3H]TCP; room temperature, 25 min.
The compound `C[C@@H]1C[C@@H](C)OC2(O1)C1c3ccccc3C([n+]3ccccc31)C2(C)C` (single isomer, unassigned) [Example 10(c)] came in with a Ki of 0.365 µM. Same read-out and setting: the same measure for `CCOC1(OCC)C2c3ccccc3C([n+]3ccccc32)C1(C)C` (single isomer, unassigned) [7(b), 12,12-diethoxy-13,13-dimethyl-6,11-ethano-6,11-dihydrobenzo[b]quinolizinium·-[(-)-DBT]]: 0.0141 µM; for `CCOC1C2c3ccccc3C([n+]3ccccc32)C1(C)C` (single isomer, unassigned) [Example 49, 6,11-ethano-12-ethoxy-13,13-dimethyl-6,11-dihydrorbenzo[b]quinolizinium perchlorate]: 0.515 µM. For `CCOC1(OCC)C2c3ccccc3C([n+]3cccc(OC)c32)C1(C)C.[O-][Cl+3]([O-])([O-])[O-]` (stereo not drawn) [Example 33, 6,11-ethano-12,12-diethoxy-13,13-dimethyl-1-methoxy-6,11-dihydrobenzo-[b]quinolizinium perchlorate], the Ki worked out at 0.0258 µM. On the same count and under the same terms, the same measure for `COC1(OC)C2c3ccccc3C([n+]3ccccc32)C1(C)C.[O-][Cl+3]([O-])([O-])[O-]` (stereo not drawn) [63(m), 12,12-dimethoxy-13,13-dimethyl-6,11-ethano-6,11-dihydrobenzo[b]quinolizinium perchlorate]: 0.111 µM. Same read-out and setting: the value for `CCOC1(OCC)C2c3ccc(OC)cc3C([n+]3ccccc32)C1(C)C` (stereo not drawn) [25(b), 6,11-ethano-12,12-diethoxy-13,13-dimethyl-8-methoxy-6,11-dihydrobenzo[b]quinolizinium chloride] was 0.147 µM. Regarding `CCOC1(OCC)C2c3ccccc3C([n+]3ccccc32)C1(C)C` (stereo not drawn) [Example 3, 12,12-diethoxy-13,13-dimethyl-6,11-ethano-6,11-dihydrobenzo[b]quinolizinium hexafluorophosphate], the affinity corresponds to a Ki of 0.00556 µM.

In the case of `CCOC1(OCC)C2c3c(OC)cccc3C([n+]3ccccc32)C1(C)C` (stereo not drawn) [19(b), 10-methoxy-12,12-diethoxy-13-13-dimethyl-6,11-ethano-6,11-dihydrobenzo[b]quinolizinium perchlorate], the inhibition constant (Ki) was 0.0132 µM.

For `CCN(CC)C1C2c3ccccc3C([n+]3ccccc32)C1(C)C` (stereo not drawn) [Example 44, 6,11-ethano-12-(diethyl) amino-13,13-dimethyl-6,11-dihydrobenzo[b]quinolizinium diperchlorate], the Ki was 0.501 µM. The same measure, in the same setting: the same measure for `CCOC1(OCC)C(C)C2c3ccccc3C1(C)c1cccc[n+]12.[O-][Cl+3]([O-])([O-])[O-]` (stereo not drawn) [63(l), 11-Methyl-12,12-diethoxy-13-methyl-6,11-ethano-6,11-dihydrobenzo[b]quinolizinium perchlorate]: 0.0393 µM; for `CCOC1C2c3ccccc3C([n+]3ccccc32)C1(C)C.[O-][Cl+3]([O-])([O-])[O-]` (stereo not drawn) [Example 48, 6,11-ethano-12-ethoxy-13,13-dimethyl-6,11-dihydrobenzo[b]quinolizinium perchlorate]: 2.15 µM; for `CCOC1(OCC)C2c3ccccc3C([n+]3ccccc32)C1(C)C` (stereo not drawn) [Example 4, 12,12-diethoxy-13,13-dimethyl-6,11-ethano-6,11-dihydrobenzo[b]quinolizinium camphanate]: 0.00566 µM. Still for that read-out and setting: the value for `CCOC1(OCC)C2c3ccccc3C([n+]3ccccc32)C1(OCC)OCC` (stereo not drawn) [Example 8, 12,12,13,13,-tetraethoxy-6,11-ethane-6,11-dihydrobenzo[b]quinolizinium perchlorate] was 5.18 µM. Compound `CCOC1(OCC)CC2c3ccccc3C1c1cccc[n+]12` (stereo not drawn) [63(a), 12,12-Diethoxy-6,11-ethano-6,11-dihydrobenzo[b]quinolizinium bromide] showed a Ki of 3.59 µM. Same read-out and setting: the same measure for `CCOC1(OCC)C2c3ccccc3C(C1Br)[n+]1ccccc12.[O-][Cl+3]([O-])([O-])[O-]` (stereo not drawn) [Example 36, 6,11-ethano-12,12-diethoxy-13-bromo-6,11-dihydrobenzo[b]quinolizinium perchlorate]: 0.0204 µM; for `CCOC1(OCC)C2c3ccccc3C(C1C)[n+]1ccccc12.[O-][Cl+3]([O-])([O-])[O-]` (stereo not drawn) [63(d), 12,12-Diethoxy-13-methyl-6,11-ethano-6,11-dihydrobenzo[b]quinolizinium perchlorate]: 0.0493 µM. Same read-out and setting: the value for `CCOC1(OCC)C2c3cccc(C)c3C(C1C)[n+]1ccccc12.[O-][Cl+3]([O-])([O-])[O-]` (stereo not drawn) [63(k), 7-Methyl-12,12-diethoxy-13-methyl-6,11-ethano-6,11-dihydrobenzo[b]quinolizinium perchlorate] was 2.46 µM.

`CCOC1(OCC)C2c3c(ccc4c3OCO4)C([n+]3ccccc32)C1(C)C.[O-][Cl+3]([O-])([O-])[O-]` (stereo not drawn) [Example 31, 6,11-ethano-12,12-diethoxy-13,13-dimethyl-9,10-methylenedioxy-6,11-dihydrobenzo[b]quinolizinium perchlorate] registered a Ki of 0.00742 µM.

Compound `CC1(C)C2c3ccccc3C(c3cccc[n+]32)C12OCCCO2` (stereo not drawn) [22(b), 6,11-ethano-12,12-(1,3-propanediolketal)-13,13-dimethyl-6,11-dihydrobenzo[b]quinolizinium chloride] came in with a Ki of 3.3 µM. The same measure, in the same setting: the same measure for `CC1(C)C2c3ccccc3C(c3cccc[n+]32)C12OCCO2` (stereo not drawn) [Example 18, 12,..12-(1; 2-ethanediolketal)-13,13-dimethyl-6,11-ethano-6,11-dihydrobenzo[b]quinolizinium perchlorate]: 4 µM; for `C[C@@H]1C[C@@H](C)OC2(O1)C1c3ccccc3C([n+]3ccccc31)C2(C)C` (stereo partly drawn) [Example 45, 6,11-ethano-12,12-(2R,4R-pentanediolketal)-13,13-dimethyl-6,11-dihydrobenzo[b]quinolizinium perchlorate]: 0.517 µM; for `CCOC1(OCC)C2c3c(OC(C)C)cccc3C([n+]3ccccc32)C1(C)C` (stereo not drawn) [34(b), 6,11-ethano-12,12-diethoxy-13,13-dimethyl-10-isopropoxy-6,11-dihydrobenzo[b]quinolizinium chloride]: 0.0475 µM. Still for that read-out and setting: the value for `CCOC1(OCC)C2c3c(O)cccc3C([n+]3ccccc32)C1(C)C` (stereo not drawn) [15(c), 10-hydroxy-12,12-diethoxy-13,13-dimethyl-6,11-ethano-6,11-dihydrobenzo[b]quinolizinium chloride] was 0.0069 µM; that for `CCN(CC)C1C2c3ccccc3C(C1C)[n+]1ccccc12` (stereo not drawn) [Example 62, 6,11-ethano-12-(diethyl) amino-13-methyl-6,11-dihydrobenzo[b]quinoliziniumperchlorate] was 12.2 µM; that for `CCOC1(OCC)C2(C)c3c(OC)cccc3C([n+]3ccccc32)C1(C)C.[O-][Cl+3]([O-])([O-])[O-]` (stereo not drawn) [Example 32, 6,11-ethano-12,12-diethoxy-13,13-dimethyl-10-methoxy-11-methyl-6,11-dihydrobenzo[b]quinolizinium perchlorate] was 0.0637 µM.

Staying with this test, now noted: rat whole brain membranes; ~1 nM [3H]TCP; room temperature, 25 min; hydrate.
Consider `C[C@@H]1C[C@@H](C)OC2(O1)C1c3ccccc3C([n+]3ccccc31)C2(C)C` (stereo partly drawn) [Example 11, 12,12-(2R,4R-pentanediolketal)-13,13-dimethyl-6,11-ethano-6,11-dihydrobenzo[b]-quinolizinium chloride·1/2 hydrate], for which the Ki was 0.497 µM.

Usually Ki stands for a dissociation constant, usually derived from enzyme kinetics or from competition with a known ligand. High values mean weaker binding, low ones tighter binding.
